Like-named read-outs stand apart in the source and are kept apart here.
Experiments:
[1] = tested on: GA-M4M11 × RHA274; experiment: Test A field trial, phytotoxicity, variety D; format: in vivo, sunflower
Excerpt: (§1) To generate the hybrids C, D and E, the fourth generation self-pollinated maintainer mutant lines M4M12, M4M11 and M4M7 were chemically sterilized by applying at the bud “star” flower stage a small amount of gibberellic acid solution to sterilize the pollen according to the general method described in Sunflower Science Technology, J. F. Carter ed. (Number 19 in the series “Agronomy”) pp. 339-386. This treatment enables maintainer plants to behave as CMS inbred lines and allows the production of heterozygous resistant hybrids, with the herbicide resistant source coming from the female side. Such crosses allowed evaluating the sexual effect of the mutation source when introduced on the female side of a cross as described in crosses C, D and E versus the male side of a cross as described in crosses F, G and H. Labels I, J and K identify third generation CMS mutant lines crossed with fourth generation maintainer lines to maintain the highly heritable mutant trait in a male sterile homozygous resistant environment. One skilled in sunflower breeding art understands the meaning of such crosses.
(§2) A rating of 0% phytotoxicity means no crop injury.

[2] = tested on: mutants originating from M11 and M12; conditions: tribenuron-methyl up to 60 g a.i./ha; others at Test G rates
Excerpt: This test involved sulfonylurea-resistant sunflower progeny BC2-M3M11 and BC2-M3M12, derived from M11 and M12, respectively. Also, a sulfonylurea-susceptible hybrid, H89A×RHA274, was included for comparison. Plants were sprayed with formulated herbicides at the 4-leaf stage. The efficacy of the treatments on the sunflowers was visually rated 4 weeks after application, using a scale where 0 means no control of the sunflowers, 85 means sufficient efficacy level to stop plants from flowering and propagating, and 100 means a complete destruction of the mutants.
Weed control in sugar beet requires 2-3 herbicide applications per season to efficiently control weeds in this slow growing crop.

[3] = tested on: BC2-M3M12; experiment: Test G control of volunteer sunflower, BC2-M3M12; format: in vivo; conditions: rated 4 weeks after application, scale 0-100
[4] = tested on: BC2-M3M11; experiment: Test G control of volunteer sunflower, BC2-M3M11; format: in vivo; conditions: rated 4 weeks after application, scale 0-100
[5] = tested on: H89A × RHA274 (sulfonylurea-susceptible hybrid); experiment: Test G control of volunteer sunflower, H89A × RHA274; format: in vivo; conditions: rated 4 weeks after application, scale 0-100
[6] = tested on: GA-M4M12 × RHA274; experiment: Test A field trial, phytotoxicity, variety C; format: in vivo, sunflower
Excerpt: as §1, §2

[7] = tested on: Inbred line control: H89A; format: in vivo, sunflower; conditions: variety B
In short: (§3)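 Fourth-generation self-pollinated maintainer mutant lines were chemically sterilized with a small amount of gibberellic acid at the bud "star" flower stage, making them act as CMS females. Herbicide resistance came from the female side. Field phytotoxicity was scored in %, with 0% meaning no crop injury.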

[8] = tested on: H89A × M4M12; format: in vivo, sunflower; conditions: variety F
[9] = tested on: H89A × M4M7; format: in vivo, sunflower; conditions: variety H
[10] = tested on: Hybrid control: H89A × RHA274; format: in vivo, sunflower; conditions: variety A
In short: as §3

[11] = tested on: H89A × M4M11; format: in vivo, sunflower; conditions: variety G
In short: as §3

[12] = tested on: BC3-M4M12; experiment: Test A field trial, phytotoxicity, variety I; format: in vivo, sunflower
Excerpt: as §1, §2

[13] = tested on: BC3-M4M7; experiment: Test A field trial, phytotoxicity, variety K; format: in vivo, sunflower
Excerpt: as §1, §2

[14] = tested on: BC3-M4M11; experiment: Test A field trial, phytotoxicity, variety J; format: in vivo, sunflower
Excerpt: as §1, §2

[15] = tested on: GA-M4M7 × RHA274; experiment: Test A field trial, phytotoxicity, variety E; format: in vivo, sunflower
Excerpt: as §1, §2

[16] = tested on: Orobanche cumana; experiment: Test E control of Orobanche cumana in resistant sunflower hybrid; format: in vivo; conditions: for relative efficacy in controlling Orobanche: Test E rates, metsulfuron-methyl compared with tribenuron-methyl
Method: The effect of the various treatments was evaluated 35 days after sowing. The sunflower roots were cleaned by washing in water, and the presence of Orobanche nodules was determined visually and by weighing root wet mass in comparison to check plants free of Orobanche infestation. […] The nodules caused by Orobanche increased root weight, and a correlation (r=0.7) was found between visual scores and weight measurements. Thus the weighing technique could be used to corroborate visual efficacy scorings. Orobanche emergence was also scored but found to be less useful to evaluate treatment efficiency at the evaluation timing of this test.
Based on the results from Test D, a modified protocol was developed to include three timings of post-emergence treatment. The hybrid BC4-M5M12 (female parent)×PHA155 restorer line (male parent) described in Test C was used in this test. Various herbicide programs were tested using three replications. […] Seed coatings of these formulated herbicides were applied to 6 kg of seeds in such amount that considering the distribution of the coated seeds in each pot, the herbicide active ingredient (a.i.) application rates per hectare were as indicated.
The treatments were applied similar to the methods described for Test D. Pre-emergence applications were broadcast only, not soil incorporated. For pre-emergence application, the pots were sprayed using the high rates of the herbicides two days after sowing the sunflower seeds. Post-emergence treatments were applied at the 4-6 leaf stage of sunflower (corresponding to early stage of Orobanche attachment; identified as “T1”), the 6-8 leaf stage of sunflower (corresponding to the mid stage of Orobanche attachment; nodules <5 mm diameter; identified as “T2”) and 8-12 leaf stage of sunflower (corresponding to late stage of Orobanche attachment; identified as “T3”). The mid-stage applications included the high as well as low application rates of each herbicide.
For comparison were also included in this test other acetolactate synthase-inhibiting herbicides reported in the literature as giving good weed control of Orobanche (L. García-Torres et al., Weed Research 1994, 34, 395-402; L. García-Torres et al., Weed Technology 1995, 9, 819-824; J. Hershenhorn et al., Weed Technology 1998, 12, 108-114).

[17] = 6 g a.i./ha post-emergence, without Citowet

COC(=O)c1ccccc1S(=O)(=O)NC(=O)Nc1nc(C)nc(OC)n1 [Metsulfuron-methyl, metsulfuron-methyl]
Maximum Phytotoxicity ([1]; in vivo): 7%
resistance/tolerance of the mutants [2]: to a lesser extent than with tribenuron-methyl
Efficacy on BC2-M3M12 ([3]; 4 g a.i./ha): 18
Efficacy on BC2-M3M11 ([4]; 4 g a.i./ha): 8
Efficacy on H89A × RHA274 ([5]; 4 g a.i./ha): 100
Maximum Phytotoxicity ([6]; in vivo): 8%
Maximum Phytotoxicity [7, 17]: 100%
Maximum Phytotoxicity [8, 17]: 4%
Maximum Phytotoxicity [9, 17]: 4%
Maximum Phytotoxicity [10, 17]: 100%
Maximum Phytotoxicity [11, 17]: 6%
Maximum Phytotoxicity ([12]; in vivo): 7%
Maximum Phytotoxicity ([13]; in vivo): 8%
Maximum Phytotoxicity ([14]; in vivo): 11%
Maximum Phytotoxicity ([15]; in vivo): 0%
relative efficacy in controlling Orobanche [16]: more efficacious in controlling Orobanche
Control ([16]; post-emergence 3 + 3 g a.i./ha at T1 + T3): 96%
Control ([16]; post-emergence 3 + 3 g a.i./ha at T1 + T3, listed as metsulfuron-methyl): excellent level of Orobanche control
Control ([16]; post-emergence 6 g a.i./ha at T2): 97%
Control ([16]; pre-emergence 3 + post-emergence 3 g a.i./ha at T2): 87%
Control ([16]; pre-emergence 6 g a.i./ha (r19)): 30%

COC(=O)c1ccccc1S(=O)(=O)NC(=O)N(C)c1nc(C)nc(OC)n1 [Tribenuron-methyl, tribenuron-methyl]
Maximum Phytotoxicity ([1]; in vivo): 6%
resistance/tolerance of the mutants [2]: excellent to very good level of resistance
Efficacy on BC2-M3M12 ([3]; 10 g a.i./ha): 0
Efficacy on BC2-M3M12 ([3]; 20 g a.i./ha): 0
Efficacy on BC2-M3M12 ([3]; 40 g a.i./ha): 0
Efficacy on BC2-M3M12 ([3]; 60 g a.i./ha): 14
Efficacy on BC2-M3M11 ([4]; 10 g a.i./ha): 0
Efficacy on BC2-M3M11 ([4]; 20 g a.i./ha): 0
Efficacy on BC2-M3M11 ([4]; 40 g a.i./ha): 3
Efficacy on BC2-M3M11 ([4]; 60 g a.i./ha): 10
Efficacy on H89A × RHA274 ([5]; 10 g a.i./ha, 4-leaf stage): 100
Efficacy on H89A × RHA274 ([5]; 20 g a.i./ha): 100
Efficacy on H89A × RHA274 ([5]; 40 g a.i./ha): 100
Efficacy on H89A × RHA274 ([5]; 60 g a.i./ha): 100
Maximum Phytotoxicity ([6]; in vivo): 0%
Maximum Phytotoxicity ([7]; 22.5 g a.i./ha post-emergence): 100%
Maximum Phytotoxicity ([8]; 22.5 g a.i./ha post-emergence): 0%
Maximum Phytotoxicity ([9]; 22.5 g a.i./ha post-emergence): 0%
Maximum Phytotoxicity ([10]; 22.5 g a.i./ha post-emergence): 100%
Maximum Phytotoxicity ([11]; 22.5 g a.i./ha post-emergence): 3%
Maximum Phytotoxicity ([12]; in vivo): 4%
Maximum Phytotoxicity ([13]; in vivo): 4%
Maximum Phytotoxicity ([14]; in vivo): 0%
Maximum Phytotoxicity ([15]; in vivo): 2%
Control ([16]; 22.5 g a.i./ha printed in pre-emergence column (first such row, r7), host BC4-M5M12 × PHA155): 70%
Control ([16]; post-emergence 11.25 + 11.25 g a.i./ha at T1 + T3): 90%
Control ([16]; post-emergence 22.5 g a.i./ha at T2): 75%
Control ([16]; pre-emergence 11.25 + post-emergence 11.25 g a.i./ha at T2): 78%
Control ([16]; pre-emergence 22.5 g a.i./ha (r18)): 0%
Control ([16]; seed coating 11.25 + post-emergence 11.25 g a.i./ha at T2): 88%

COC(=O)c1cccc(C)c1S(=O)(=O)NC(=O)Nc1nc(OCC(F)(F)F)nc(N(C)C)n1 [Triflusulfuron-methyl, triflusulfuron-methyl]
Maximum Phytotoxicity ([1]; variety D, 20 g a.i./ha post-emergence): 19%
Maximum Phytotoxicity ([1]; variety D, 40 g a.i./ha post-emergence): 40%
resistance/tolerance of the mutants [2]: to a lesser extent than with tribenuron-methyl
Efficacy on BC2-M3M12 ([3]; 15 g a.i./ha): 8
Efficacy on BC2-M3M11 ([4]; 15 g a.i./ha): 13
Efficacy on H89A × RHA274 ([5]; 15 g a.i./ha): 82
Maximum Phytotoxicity ([6]; variety C, 20 g a.i./ha post-emergence): 19%
Maximum Phytotoxicity ([6]; variety C, 40 g a.i./ha post-emergence): 38%
Maximum Phytotoxicity ([7]; 20 g a.i./ha post-emergence): 100%
Maximum Phytotoxicity ([7]; 40 g a.i./ha post-emergence): 100%
Maximum Phytotoxicity ([8]; 20 g a.i./ha post-emergence): 16%
Maximum Phytotoxicity ([8]; 40 g a.i./ha post-emergence): 33%
Maximum Phytotoxicity ([9]; 20 g a.i./ha post-emergence): 10%
Maximum Phytotoxicity ([9]; 40 g a.i./ha post-emergence): 33%
Maximum Phytotoxicity ([10]; 20 g a.i./ha post-emergence): 100%
Maximum Phytotoxicity ([10]; 40 g a.i./ha post-emergence): 100%
Maximum Phytotoxicity ([11]; 20 g a.i./ha post-emergence): 15%
Maximum Phytotoxicity ([11]; 40 g a.i./ha post-emergence): 36%
Maximum Phytotoxicity ([12]; variety I, 20 g a.i./ha post-emergence): 4%
Maximum Phytotoxicity ([12]; variety I, 40 g a.i./ha post-emergence): 13%
Maximum Phytotoxicity ([13]; variety K, 20 g a.i./ha post-emergence): 8%
Maximum Phytotoxicity ([13]; variety K, 40 g a.i./ha post-emergence): 10%
Maximum Phytotoxicity ([14]; variety J, 20 g a.i./ha post-emergence): 6%
Maximum Phytotoxicity ([14]; variety J, 40 g a.i./ha post-emergence): 14%
Maximum Phytotoxicity ([15]; variety E, 20 g a.i./ha post-emergence): 20%
Maximum Phytotoxicity ([15]; variety E, 40 g a.i./ha post-emergence): 38%
relative efficacy in controlling Orobanche [16]: less efficacious in controlling Orobanche
Control ([16]; post-emergence 18.75 g a.i./ha at T2): 75%
